In one test the test system is Enterobacter cloacae. Briefly: Antibacterial activity against Enterobacter cloacae expressing P99. Format: functional.
The next test deals with Pseudomonas aeruginosa. Briefly: Antibacterial activity against Pseudomonas aeruginosa expressing AmpC. Format: functional.
The target in test [1] is Metallo-beta-lactamase type 2 (Bacteroides fragilis, UniProt P25910). Briefly: Inhibition of Bacteroides fragilis CcrA.
For test [2], the target named is T1, Imipenem-hydrolyzing beta-lactamase (Enterobacter cloacae, UniProt P52663).
T1 sequence (P52663 whole entry): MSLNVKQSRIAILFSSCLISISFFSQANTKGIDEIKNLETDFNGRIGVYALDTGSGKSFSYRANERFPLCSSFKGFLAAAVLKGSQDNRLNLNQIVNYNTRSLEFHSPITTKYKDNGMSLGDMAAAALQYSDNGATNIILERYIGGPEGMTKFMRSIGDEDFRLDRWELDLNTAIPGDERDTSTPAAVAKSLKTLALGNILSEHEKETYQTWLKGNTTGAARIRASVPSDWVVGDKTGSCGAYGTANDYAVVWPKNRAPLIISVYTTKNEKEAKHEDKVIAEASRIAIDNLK
Briefly: Inhibition of Enterobacter cloacae Imi1.

The target of test [3] is Beta-lactamase TEM (Escherichia coli) (UniProt P62593). The experiment in a line: Antibacterial activity against Escherichia coli expressing TEM1. Format: functional.
Another test concerns the target Beta-lactamase (Enterobacter cloacae, UniProt P05364).
The next test addresses Beta-lactamase TEM (Escherichia coli, UniProt P62593). Briefly: Inhibition of Escherichia coli TEM1.
In another test the test system is Serratia marcescens. The experiment in a line: Antibacterial activity against Serratia marcescens expressing AmpC and Smel. Format: functional.
For test [4], the system named is Escherichia coli. Briefly: Antibacterial activity against Escherichia coli expressing TEM1 in iv dosed murine acute lethal infection model in presence of piperacillin. Format: functional.
Test [5] relates to Klebsiella aerogenes. Briefly: Antibacterial activity against Enterobacter aerogenes expressing AmpC in iv dosed murine acute lethal infection model in presence of piperacillin. Format: functional.
Test [6] is described as follows: Inhibition of SHV1.
A short description of test [7]: Inhibition of GC1.
Test [8] deals with Klebsiella aerogenes. Briefly: Antibacterial activity against Enterobacter aerogenes expressing AmpC in iv dosed murine acute lethal infection model. Format: functional.
The test system of test [9] is Escherichia coli. Briefly: Antibacterial activity against Escherichia coli expressing TEM1 in iv dosed murine acute lethal infection model. Format: functional.

Molecules are shown by their SMILES. In brackets after ≈: the same amount, converted by molar mass.

We go through 15 molecules from ChEMBL document CHEMBL1137415, “Structure-activity relationship of 6-methylidene penems bearing 6,5 bicyclic heterocycles as broad-spectrum beta-lactamase inhibitors: evidence for 1,4-thiazepine intermediates with C7 R stereochemistry by computational methods” (J Med Chem, 2006).

Beta-lactamase TEM (Escherichia coli), sequence (P62593 whole entry): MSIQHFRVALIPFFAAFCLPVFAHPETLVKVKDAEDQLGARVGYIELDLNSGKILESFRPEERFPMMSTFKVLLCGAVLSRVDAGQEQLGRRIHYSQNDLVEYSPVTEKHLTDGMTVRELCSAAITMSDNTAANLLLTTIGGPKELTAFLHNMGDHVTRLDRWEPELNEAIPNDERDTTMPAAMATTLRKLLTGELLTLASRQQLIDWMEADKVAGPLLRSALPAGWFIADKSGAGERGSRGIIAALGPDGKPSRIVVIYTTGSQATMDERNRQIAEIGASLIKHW
Beta-lactamase TEM, sequence (P62593 whole entry): as above
Beta-lactamase, sequence (P05364 whole entry): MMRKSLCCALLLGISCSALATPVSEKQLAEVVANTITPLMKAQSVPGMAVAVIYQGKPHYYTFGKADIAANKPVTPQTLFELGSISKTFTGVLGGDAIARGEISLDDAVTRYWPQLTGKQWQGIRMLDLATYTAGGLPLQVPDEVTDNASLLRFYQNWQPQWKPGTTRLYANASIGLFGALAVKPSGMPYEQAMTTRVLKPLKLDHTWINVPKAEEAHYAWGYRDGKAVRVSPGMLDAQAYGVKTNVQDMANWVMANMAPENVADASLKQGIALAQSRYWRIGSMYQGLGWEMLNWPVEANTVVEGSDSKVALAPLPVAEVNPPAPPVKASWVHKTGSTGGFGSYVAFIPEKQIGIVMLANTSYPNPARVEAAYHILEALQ
Metallo-beta-lactamase type 2, sequence (P25910 whole entry): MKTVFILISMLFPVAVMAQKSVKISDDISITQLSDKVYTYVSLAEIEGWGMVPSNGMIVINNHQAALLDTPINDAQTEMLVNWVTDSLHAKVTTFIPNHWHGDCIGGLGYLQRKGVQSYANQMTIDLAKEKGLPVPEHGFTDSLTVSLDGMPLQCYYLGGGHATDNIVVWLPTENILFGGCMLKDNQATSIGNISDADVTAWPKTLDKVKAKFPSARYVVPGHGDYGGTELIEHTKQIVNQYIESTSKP

Usually IC50 stands for the concentration that gives 50% inhibition. A high value points to a need for much substance. `O=C([O-])C1=CS[C@@H]2/C(=C/c3cn4c(n3)CSCC4)C(=O)N12.[Na+]`: the MIC against Enterobacter cloacae amounted to 32 µg/mL; in the test on Pseudomonas aeruginosa, 64 µg/mL; in [3] it was 64 µg/mL; in the test with Serratia marcescens, 4 µg/mL. The concentration for half-maximal inhibition (IC50) was 110 nM in test [1], more than 10000 nM in test [2], 420 nM against Beta-lactamase and 730 nM against Beta-lactamase TEM.
`C[C@]1(Cn2ccnn2)[C@H](C(=O)O)N2C(=O)C[C@H]2S1(=O)=O` [TAZOBACTAM]: the MIC in the test with Enterobacter cloacae stood at 64 µg/mL (≈ 213 µM); with Pseudomonas aeruginosa it was 64 µg/mL (≈ 213 µM); in test [3], 2 µg/mL (≈ 6.66 µM); against Serratia marcescens it was 1 µg/mL (≈ 3.33 µM).
For `CN1CCn2cc(/C=C3/C(=O)N4C(C(=O)[O-])=CS[C@H]34)nc2C1.[Na+]`, the MIC was 1 µg/mL in the test on Enterobacter cloacae, 4 µg/mL in the test on Pseudomonas aeruginosa, 16 µg/mL in test [3] and 1 µg/mL with Serratia marcescens. Besides, the IC50 in [2] amounted to 22 nM; against Beta-lactamase, 6 nM; against Beta-lactamase TEM, 4 nM.
For orientation: ED50 means the dose at which the effect has come halfway, by size or by number of responders. With `O=C([O-])C1=CS[C@@H]2/C(=C\c3cc4n(n3)CCOC4)C(=O)N12.[Na+]`, the MIC amounted to 8 µg/mL in the test with Enterobacter cloacae, 2 µg/mL in the test with Pseudomonas aeruginosa, 4 µg/mL in [3] and 1 µg/mL against Serratia marcescens. In the test on Escherichia coli [4], the ED50 was determined as 19 mg/kg. For the same molecule, the IC50 is 20 nM in test [2], 6 nM against Beta-lactamase and 4 nM at Beta-lactamase TEM.
As to `O=C([O-])C1=CS[C@@H]2/C(=C\c3cc4n(n3)CCS(=O)(=O)C4)C(=O)N12.[Na+]`, the MIC worked out at 16 µg/mL against Enterobacter cloacae, 2 µg/mL in the test on Pseudomonas aeruginosa, 4 µg/mL in test [3] and 1 µg/mL with Serratia marcescens. The IC50 is 43 nM in test [1], 56 nM in test [2], 2 nM on Beta-lactamase and 1 nM on Beta-lactamase TEM. Further, the ED50 with Escherichia coli [4] is 64 mg/kg.
Regarding `O=C([O-])C1=CS[C@@H]2/C(=C/c3cn4c(n3)COCC4)C(=O)N12.[Na+]`, the MIC against Enterobacter cloacae amounted to 8 µg/mL; against Pseudomonas aeruginosa it was 1 µg/mL; in test [3], 2 µg/mL; against Serratia marcescens, 1 µg/mL. Also, the IC50 in [1] came out at 66 nM; in test [2], 8 nM; at Beta-lactamase, 5 nM; in [6], 9 nM; at Beta-lactamase TEM, 0.4 nM; in [7] it was 6.2 nM. In addition, the ED50 in the test with Escherichia coli [4] turned out to be 23 mg/kg; in the test with Klebsiella aerogenes [5], 96 mg/kg.
In the case of `O=C([O-])C1=CS[C@@H]2/C(=C\c3cn4c(n3)CSCC4)C(=O)N12.[Na+]`, the MIC (against Enterobacter cloacae; in the test with Pseudomonas aeruginosa; in [3]; with Serratia marcescens) was 8 µg/mL in each case. The IC50 came out at 8 nM in [1], 2300 nM in test [2], 2 nM against Beta-lactamase and 3 nM on Beta-lactamase TEM.
For `O=C([O-])C1=CS[C@@H]2/C(=C\c3cc4n(n3)CCNC4)C(=O)N12.[Na+]`, the MIC is 16 µg/mL in the test with Enterobacter cloacae, 0.5 µg/mL in the test with Pseudomonas aeruginosa, 4 µg/mL in test [3] and 1 µg/mL in the test with Serratia marcescens. In addition, the ED50 in the test with Escherichia coli [4] was 30 mg/kg. In addition, the IC50 was 123 nM in test [2], 3 nM against Beta-lactamase and 1 nM on Beta-lactamase TEM.
Turning to `O=C([O-])C1=CS[C@@H]2/C(=C\c3cc4n(n3)CCSC4)C(=O)N12.[Na+]`, the MIC with Enterobacter cloacae was 8 µg/mL; in the test with Pseudomonas aeruginosa, 2 µg/mL; in [3], 4 µg/mL; with Serratia marcescens, 0.5 µg/mL. The ED50 in the test on Escherichia coli [4] amounted to 31 mg/kg; with Klebsiella aerogenes [5], 123 mg/kg. In addition, the IC50 in [2] was found to be 18 nM; on Beta-lactamase, 1 nM.
As for `O=C([O-])C1=CS[C@@H]2/C(=C\c3cc4n(n3)CCCC4)C(=O)N12.[Na+]`, the MIC is 4 µg/mL against Enterobacter cloacae, 4 µg/mL in the test with Pseudomonas aeruginosa, 2 µg/mL in [3] and 1 µg/mL with Serratia marcescens. Besides, the ED50 in the test with Escherichia coli [4] was determined as 28 mg/kg; in the test with Klebsiella aerogenes [5] it was 86 mg/kg. For the same molecule, the IC50 is 90 nM in [2], 3 nM against Beta-lactamase and 2 nM on Beta-lactamase TEM.
As to `O=C([O-])C1=CS[C@@H]2/C(=C/c3cn4c(n3)CNCC4)C(=O)N12.[Na+]`, the MIC came out at 2 µg/mL against Enterobacter cloacae, 16 µg/mL against Pseudomonas aeruginosa, 2 µg/mL in test [3] and 1 µg/mL in the test on Serratia marcescens. Moreover, the IC50 in [1] turned out to be 320 nM; in test [2], 28 nM; against Beta-lactamase, 6 nM; against Beta-lactamase TEM it was 5 nM. Also, the ED50 in the test on Escherichia coli [4] is 27 mg/kg.
As for `O=C([O-])C1=CS[C@@H]2/C(=C\c3cc4c(s3)CCN(Cc3cccnc3)C4)C(=O)N12.[Na+]`, the MIC against Enterobacter cloacae came out at 64 µg/mL; in the test on Pseudomonas aeruginosa it was 64 µg/mL; in test [3] it was 32 µg/mL; in the test with Serratia marcescens it was 1 µg/mL. Moreover, the IC50 in test [2] is 40 nM; against Beta-lactamase TEM, 10 nM.
`COc1ccc(CN2CCc3sc(/C=C4/C(=O)N5C(C(=O)[O-])=CS[C@H]45)cc3C2)cc1.[Na+]`: the MIC with Enterobacter cloacae is 32 µg/mL; against Pseudomonas aeruginosa, 32 µg/mL; in [3] it was 8 µg/mL; in the test with Serratia marcescens, 1 µg/mL. For the same molecule, the IC50 in [1] amounted to 78 nM; in [2] it was 27 nM; against Beta-lactamase, 15 nM; on Beta-lactamase TEM it was 2 nM.
Take `CCN1CCN(C(=O)NC(C(=O)N[C@@H]2C(=O)N3C2SC(C)(C)[C@@H]3C(=O)O)c2ccccc2)C(=O)C1=O` (single isomer, unassigned) [PIPERACILLIN]: the ED50 in the test with Klebsiella aerogenes [8] turned out to be 421 mg/kg; in the test on Escherichia coli [9], 165 mg/kg.
For the molecule `O=C([O-])C1=CS[C@@H]2/C(=C\c3cc4n(n3)CCCO4)C(=O)N12.[Na+]`, the MIC is 4 µg/mL in the test on Enterobacter cloacae, 1 µg/mL in the test with Pseudomonas aeruginosa, 4 µg/mL in test [3] and 1 µg/mL in the test on Serratia marcescens. For the same molecule, the IC50 in test [1] was 140 nM; in test [2], 413 nM; against Beta-lactamase, 5 nM; at Beta-lactamase TEM, 6 nM. Moreover, the ED50 in the test with Escherichia coli [4] amounted to 90 mg/kg.
